# Test results taken from PubChem BioAssay AID1863 (Southern Research Specialized Biocontainment Screening …, 2009).
# Test system: S. Typhimurium PhoP-regulated promoter GFP reporter, 4 h
# Assay: PhoP-dependent GFP reporter repression – Salmonella Typhimurium, primary screen (AID 1863)
row,SMILES,IC50
1,Cc1cc(C(C)(C)CC(C)(C)C)ccc1OCCOCC[N+](C)(C)Cc1ccccc1,31.8 µM
2,CCn1cc(C(=O)NCCCN(C)C)c(=O)c2cc(F)c(N3CCN(C)CC3)cc21,49.1 µM
3,CCCc1nnc(NC(=O)c2cn(CC)c3cc(N4CCN(C)CC4)c(F)cc3c2=O)s1,67.3 µM
4,CC(C)CCNCC(O)CON=C1c2ccccc2-c2ccccc21 (stereo not drawn),123 µM
5,N=c1n(CC(=O)c2ccc(Br)s2)c2ccccc2n1Cc1ccccc1,68.3 µM
6,CCCCCC(CC(=O)NO)C(=O)NC(C(=O)N1CCCC1CO)C(C)C (stereo not drawn),12.7 µM
7,O=C(N/N=C/c1coc2ccc(Cl)cc2c1=O)c1cc(O)cc(O)c1,69.1 µM
8,CO[C@H]1C=CO[C@@]2(C)Oc3c(C)c(O)c4c(O)c(c(C=NN5CCN(C)CC5)c(O)c4c3C2=O)NC(=O)C(C)=CC=C[C@H](C)[C@H](O)[C@@H](C)[C@@H](O)[C@@H](C)[C@H](OC(C)=O)[C@@H]1C,6.31 µM
9,Oc1cccc(Nc2c3ccccc3nc3ccccc23)c1,147 µM
10,Oc1cccc(/C=N/Nc2ccc(Cl)nn2)c1O,138 µM
11,Oc1ccc(/C=N/Nc2ncc(Br)cn2)c(O)c1,111 µM
12,Cc1ccc(Nc2c3c(nc4ccccc24)CCC3)cc1,137 µM
13,OC(c1cc(C(F)(F)F)nc2c(Cl)cc(Cl)cc12)C1CCCCN1 (stereo not drawn),101 µM
14,O=[N+]([O-])c1ccc(O)c(/C=N/Nc2ccccn2)c1,17 µM
15,CC[C@H]1OC(=O)C[C@@H](O)[C@H](C)[C@@H](O[C@@H]2O[C@H](C)C[C@H](N(C)C)[C@H]2O)[C@@H](CC=O)C[C@@H](C)C(=O)C=C[C@]2(C)O[C@H]2[C@@H]1C,18.2 µM
16,CCCCC(CC)CN=C(N)NC(N)=NCCCCCCN=C(N)NC(N)=NCC(CC)CCCC (stereo not drawn),7.11 µM
17,Oc1cccc(C=NCc2ccccc2)c1O,106 µM
18,CNc1nc(NCc2ccccc2)c2ccccc2n1,136 µM
19,O=C(C[n+]1cc(-c2ccc(Cl)cc2)n2c1CCC2)Nc1nc(-c2ccc(F)cc2)cs1,73.7 µM
20,CCn1cc(C(=O)O)c(=O)c2cc(F)c(N3CCN(C(=S)NC(=O)c4ccccc4)CC3)cc21,10.5 µM
21,Cc1cc(C)n(-c2nc(NCCN(C)C)c3c4c(sc3n2)CCCC4)n1,103 µM
22,Cc1ccc(C(C[N+](=O)[O-])c2c(N)n(C)c(=O)n(C)c2=O)cc1 (stereo not drawn),62.3 µM
23,CC(=O)NC(c1cccc([N+](=O)[O-])c1)c1ccc2cccnc2c1O (stereo not drawn),105 µM
24,CCN1/C(=C/C=C/C=C/c2sc3ccccc3[n+]2CC)Sc2ccccc21,18.6 µM
25,C[C@H]1c2cccc(O)c2C(O)=C2C(=O)[C@]3(O)C(O)=C(C(N)=O)C(=O)[C@@H](N(C)C)[C@@H]3[C@@H](O)[C@@H]21,6.25 µM
26,O=C(Nc1nc(-c2ccccn2)cs1)c1ccc(Cl)s1,69.3 µM
27,NC1CCN(c2c(F)cc3c(=O)c(C(=O)O)cn(C4CC4)c3c2Cl)C1 (stereo not drawn),< 0.23 µM

row,SMILES,IC50
1,CCC(C)(C)c1ccc(OCCCC[n+]2ccccc2)c(C(C)(C)CC)c1,38.9 µM
2,CCn1cc(C(=O)NCCN(C)C)c(=O)c2cc(F)c(N3CCN(C)CC3)cc21,53 µM
3,Cc1ccnc(NC(c2cccnc2)c2ccc3cccnc3c2O)c1 (stereo not drawn),57.1 µM
4,CCn1cc(C(=O)O)c(=O)c2cc(F)c(N3CCNCC3)cc21,0.51 µM
5,CSCC[C@H](NC(=O)Nc1ccc(C)cc1)C(=O)O,123 µM
6,O=C(N/N=C/c1sc2ccccc2c1O)c1cccc2ccccc12,42.4 µM
7,COc1ccc(/C=N/Nc2cc(C)nc3c(C)cccc23)cc1,80.6 µM
8,O=C(C[n+]1cccc(CNC(=O)c2ccc(OC(F)F)cc2)c1)Nc1ccc(SC(F)F)cc1,94.1 µM
9,CCCCCCCCCCOC(=O)Cn1c(COc2ccc(Cl)cc2)[n+](C)c2ccccc21,19.5 µM
10,CC[C@@H](C)[C@H](CNC)NC[C@@H](Cc1cccc2ccccc12)NCCc1cccc(C(F)(F)F)c1,33.2 µM
11,C/C(=C\C(=O)OCCCCCCCCC(=O)O)C[C@@H]1OC[C@H](C[C@@H]2O[C@H]2[C@@H](C)[C@H](C)O)[C@@H](O)[C@H]1O,10.5 µM
12,CN(C)[C@@H]1C(=O)C(C(N)=O)=C(O)[C@@]2(O)C(=O)C3=C(O)c4c(O)cccc4[C@@](C)(O)C3[C@H](O)C12 (stereo partly drawn),1.74 µM
13,Cc1cc(SCC(=O)N/N=C/c2ccc(O)c(O)c2O)c(C)cc1Br,41.6 µM
14,CCCCCCCCCCCCCCCC[n+]1cccc2ccccc21,24.9 µM
15,CCCCCCCCn1c2c(c(=N)c3ccccc31)CCC2,47.7 µM
16,O=c1c(O)cccc2cc(O)c(O)c(O)c12,27.5 µM
17,CCCCCCCSc1cc(OC)c(CCNC)cc1OC,55.7 µM
18,CC(Cc1ccccc1)NCc1ccccc1O (stereo not drawn),40.3 µM
19,O=[N+]([O-])c1cc(F)c2cccnc2c1O,12 µM
20,Fc1ccc(CCNCc2ccc(Cl)c(Cl)c2)cc1,84.3 µM
21,CC[n+]1c(/C=C/C=C/c2ccc(N(C)C)cc2)sc2ccccc21,69.6 µM
22,NC1CCN(c2nc3c(cc2F)c(=O)c(C(=O)O)cn3-c2ccc(F)cc2F)C1 (stereo not drawn),0.49 µM
23,Cc1conc1NC(c1cccs1)c1ccc2cccnc2c1O (stereo not drawn),60.9 µM
24,O=C(N/N=C/c1ccc([N+](=O)[O-])o1)c1ccc(O)cc1,33.3 µM
25,CN(C)C1C(=O)C(C(N)=O)=C(O)C2(O)C(=O)C3=C(O)c4c(O)cccc4C(C)(O)C3CC12 (stereo not drawn),3.55 µM
26,CCN(CC)CCOc1ccc2c(c1)C(=NNC(=O)c1ccccn1)c1cc(OCCN(CC)CC)ccc1-2,42.5 µM
